The results in this text go back to patent publication US20260294884A1 (Insilico Medicine IP Limited, priority 2023, published 2026).

The target in series [1] is T1, KAT6A (Homo sapiens, UniProt Q92794).
T1 construct: purchased Active Motif
As to the kind of experiment: KAT6A biochemical assay (radiometric [3H]-acetyl CoA, biotinylated H4 (1-30) peptide). The note with it: 60 min reaction, room temperature. As for the experimental part: Inhibition of KAT6A enzymatic activity by test compounds was determined using a radiometric 384-well format assay. A 10-point serial dilution of the test compounds were conducted in DMSO and then a volume of 200 nL was transferred into 384-well assay plate by Echo (Labcyte). 10 μL of 2×enzyme solution (5 nM KAT6A (Active Motif) in assay buffer (50 mM Tris —HCl pH 8.0, 50 mM KCl, 0.1 mM EDTA, 5% glycerol, 1 mM DTT)) was dispensed into assay plate except for low control wells, in which 10 μL of assay buffer was transferred. The plate was incubated at room temperature for 15 min before addition of 10 μL of 2×[^3H]-acetyl coenzyme A (Ac-COA) and substrate peptide mix solution (500 nM (KAT6A) [^3H]-Ac-COA (PerkinElmer) and 800 nM (KAT6A) biotinylated H4 (1-30) peptide (GL Biochem) in assay buffer) to each well to start reaction. The plate was incubated at room temperature for 60 min (KAT6A), and then the reaction was stopped by adding 10 μL of stop solution (cold Ac-COA (Cayman) in 1×assay buffer). […] The plate was read on Microbeta and the inhibition percentage of each compound treated well was calculated based on the equation inh %=(Max-sample)/(Max-Min)*100 where Max is signal from high control wells with enzyme, and Min is signal from low control wells with assay buffer only. […]

Series [2] deals with Caco-2 cells. Briefly: Permeability, Caco-2 assay. Format: in vitro ADME. The note with it: for Mean Papp A to B: Caco-2, pH 7.40, 2 hours, 37 °C. As to the method: Permeability of test compounds was determined in Caco-2 Assay. Caco-2 cells purchased from ATCC were seeded onto […] membranes (PET) in 96-well Corning Insert plates at 1×10^5 cells/cm^2, and refreshed medium every 4~5 days until to the 21st to 28th day for confluent cell monolayer formation. The transport buffer in the study was HBSS with 10.0 mM HEPES at pH 7.40±0.05. Test compound was tested at […] bi-directionally in duplicate. Digoxin was tested at 10.0 μM bi-directionally in duplicate, while nadolol and metoprolol were tested at 2.00 μM in A to B direction in duplicate. Final DMSO concentration was adjusted to less than 1%. The plate was incubated for 2 hours in CO2 incubator at 37±1° C., with 5% CO2 at saturated humidity without shaking. And all samples after mixed with acetonitrile containing internal standard were centrifuged at 3200×g for 10 min. For nadolol and metoprolol, 200 μL supernatant solution was diluted with 600 μL ultra-pure water for LC-MS/MS analysis. For digoxin and test compounds, 200 μL supernatant solution was diluted with 200 μL ultra-pure water for LC-MS/MS analysis. Concentrations of test and control compounds in starting solution, donor solution, and receiver solution were quantified by LC-MS/MS methodologies, using peak area ratio of analyte/internal standard. After transport assay, lucifer yellow rejection assay was applied to determine the Caco-2 cell monolayer integrity.

The nature of series [3]: Kinetic solubility in 50 mM phosphate buffer (pH 7.4). The series is classed as physicochemical. The note with it: versus compound 47. As to the method: 10 μL of 10 mM in DMSO of test and control compounds was added into lower chambers of whatman miniuniprep vials, respectively. 490 μL of 50 mM PB (pH 7.4) was added into lower chambers of the whatman miniuniprep vials, respectively. The solubility samples were vortexted for at least 2 minutes. The miniuniprep vials were shaken on a shaker for 24 hours at room temperature at the speed of 800 rpm and then centrifuged for 20 minutes (eg. 4000 rpm). The miniunipreps were compressed to prepare the filtrates for injection into HPLC system to calculate the concentration with standard curve.

The test system of series [4] is LD1-0009-362391 PDX model. Also on record: species or system NCG Mice. As to conditions: mouse, in vivo. As to the method: About 50-90 mg tumor pieces were implanted subcutaneously on the right flank of each mouse. The treatments were started when the mean tumor size reaches approximately 150 (100-300) mm^3. The tumor size was measured in two dimensions using a caliper, and the volume was expressed in mm^3 using the formula: V=0.5 a×b^2 where a and b are the long and short diameters of the tumor, respectively.
(§1) Mice were assigned into groups using randomized block design based on their tumor volumes. The test article administration and the animal numbers in each study group are shown in the following experimental design table 5, the PDX model information are shown in the table 6.
The PDX model is derived from a patient with invasive breast carcinoma, who received and progressed on multiple prior lines of treatment including docetaxel, epirubicin, cyclophosphamide, gemcitabine, lobaplatin, tamoxifen, nab-paclitaxel, cisplatin, capecitabine, palbociclib and letrozole.
(§2) For routine monitoring, all study animals were monitored for not only tumor growth but also behavior such as mobility, food, and water consumption (by cage side checking only), body weight (BW), eye/hair matting and any other abnormal effect. Any mortality and/or abnormal clinical signs were recorded.
The measurement of tumor size was conducted twice a week. The tumor size was measured in two dimensions using a caliper, and the volume will be expressed in mm^3 using the formula: V=0.5a×b^2 where a and b are the long and short diameters of the tumor, respectively. The tumor sizes are used for the calculations of T/C values. The T/C value (in percent) is an indication of antitumor efficacy, T/C=RTV of treated group/RTV of Control group, RTV=Vt/V0, Vt is the mean volume after treatment on a given day, V0 is the mean tumor volume at the beginning of administration. Meanwhile the tumor volume is used for calculation of TGI of each group according to the following formula: When Tti−Tt0 >0, TGI (%)=[1−(Tti−Tt0)/(Vci−Vc0)]×100; when Tti−Tt0<0, TGI (%)=[1−(Tti−Tt0)/Tt0]×100. […]

Series [5] in a line: Body weight change in PDX study in NCG mice. Format: in vivo. As to conditions: P.O QD × 27; all mice.
Description: as §1, §2
Body weights of all animals were measured twice a week throughout the study. Body weight change, expressed in %, is calculated using the following formula: BWL (%)=(BWi−BW0)/BW0×100, BWi is the body weight, BW0 is the bodyweight on the first day of treatment.
The statistical software GraphPad Prism was used to analyze the difference in tumor volume and body weight between the treatment group and the vehicle control group. All the data is described as Mean±SEM, and one-way ANOVA analysis of variance was performed.

Series [6] deals with ER+/KAT6a^high ZR-75-1 breast cancer cell line. Briefly: In vitro cytotoxicity in ER+/KAT6a^high ZR-75-1 breast cancer cell line (CTG assay, 14 days). Format: cell-based, Human. As to the method:
Single agent experiments (n=3 per each compound) were performed to obtain the IC10, IC25, IC50 and IC75 values for each drug to be used hereafter in the combo treatment.
The cytotoxicity was evaluated by CTG assay upon 14 days of treatment and stimulation with 1 nM E2. Statistical analysis was performed by 2 way ANOVA Tukey's multiple comparison test (* 0.01<p<0.05).
Human ER+/KAT6A^high breast cancer cell line ZR-75-1 (ATCC, Virginia, US) was cultured in RPMI 1640 medium (Gibco, Life Technologies, Carlsbad, CA, USA) supplemented with 10% fetal bovine serum (FBS)(Sigma, Saint Louis, CA, USA). All cells were incubated at 37° C., 5% CO2, 80-95% relative humidity.
Stock solutions were added at appropriate concentration in culture medium before the addition to cells.
For the cytotoxicity assay, cells were previously starved 48 h in RPMI 1640 no phenol red supplemented with 8% charcoal stripped FBS, and then seeded at appropriate density (2000 cells/well) in starvation media the day before starting the treatment. […] Concentration range was previously identified in single agent cytotoxic assay for the same time points in order to include in the combination experiment IC10, IC25, IC50 and IC75 values for each drug. After 14 days of treatment, CellTiter-Glo® 2.0 Cell Viability Assay (CTG)(Promega, Madison, WI, USA) was added to assess cell viability. Luminescence was measured 10 min later using Tecan Infinite M200 (Tecan Trading AG, Switzerland).

“And” between values parts separate entries of the source, which are not always exact repeats. Equal entries are not always repeated. Where two headings read alike, the source gives them in different places.

T1 sequence (Q92794 whole entry): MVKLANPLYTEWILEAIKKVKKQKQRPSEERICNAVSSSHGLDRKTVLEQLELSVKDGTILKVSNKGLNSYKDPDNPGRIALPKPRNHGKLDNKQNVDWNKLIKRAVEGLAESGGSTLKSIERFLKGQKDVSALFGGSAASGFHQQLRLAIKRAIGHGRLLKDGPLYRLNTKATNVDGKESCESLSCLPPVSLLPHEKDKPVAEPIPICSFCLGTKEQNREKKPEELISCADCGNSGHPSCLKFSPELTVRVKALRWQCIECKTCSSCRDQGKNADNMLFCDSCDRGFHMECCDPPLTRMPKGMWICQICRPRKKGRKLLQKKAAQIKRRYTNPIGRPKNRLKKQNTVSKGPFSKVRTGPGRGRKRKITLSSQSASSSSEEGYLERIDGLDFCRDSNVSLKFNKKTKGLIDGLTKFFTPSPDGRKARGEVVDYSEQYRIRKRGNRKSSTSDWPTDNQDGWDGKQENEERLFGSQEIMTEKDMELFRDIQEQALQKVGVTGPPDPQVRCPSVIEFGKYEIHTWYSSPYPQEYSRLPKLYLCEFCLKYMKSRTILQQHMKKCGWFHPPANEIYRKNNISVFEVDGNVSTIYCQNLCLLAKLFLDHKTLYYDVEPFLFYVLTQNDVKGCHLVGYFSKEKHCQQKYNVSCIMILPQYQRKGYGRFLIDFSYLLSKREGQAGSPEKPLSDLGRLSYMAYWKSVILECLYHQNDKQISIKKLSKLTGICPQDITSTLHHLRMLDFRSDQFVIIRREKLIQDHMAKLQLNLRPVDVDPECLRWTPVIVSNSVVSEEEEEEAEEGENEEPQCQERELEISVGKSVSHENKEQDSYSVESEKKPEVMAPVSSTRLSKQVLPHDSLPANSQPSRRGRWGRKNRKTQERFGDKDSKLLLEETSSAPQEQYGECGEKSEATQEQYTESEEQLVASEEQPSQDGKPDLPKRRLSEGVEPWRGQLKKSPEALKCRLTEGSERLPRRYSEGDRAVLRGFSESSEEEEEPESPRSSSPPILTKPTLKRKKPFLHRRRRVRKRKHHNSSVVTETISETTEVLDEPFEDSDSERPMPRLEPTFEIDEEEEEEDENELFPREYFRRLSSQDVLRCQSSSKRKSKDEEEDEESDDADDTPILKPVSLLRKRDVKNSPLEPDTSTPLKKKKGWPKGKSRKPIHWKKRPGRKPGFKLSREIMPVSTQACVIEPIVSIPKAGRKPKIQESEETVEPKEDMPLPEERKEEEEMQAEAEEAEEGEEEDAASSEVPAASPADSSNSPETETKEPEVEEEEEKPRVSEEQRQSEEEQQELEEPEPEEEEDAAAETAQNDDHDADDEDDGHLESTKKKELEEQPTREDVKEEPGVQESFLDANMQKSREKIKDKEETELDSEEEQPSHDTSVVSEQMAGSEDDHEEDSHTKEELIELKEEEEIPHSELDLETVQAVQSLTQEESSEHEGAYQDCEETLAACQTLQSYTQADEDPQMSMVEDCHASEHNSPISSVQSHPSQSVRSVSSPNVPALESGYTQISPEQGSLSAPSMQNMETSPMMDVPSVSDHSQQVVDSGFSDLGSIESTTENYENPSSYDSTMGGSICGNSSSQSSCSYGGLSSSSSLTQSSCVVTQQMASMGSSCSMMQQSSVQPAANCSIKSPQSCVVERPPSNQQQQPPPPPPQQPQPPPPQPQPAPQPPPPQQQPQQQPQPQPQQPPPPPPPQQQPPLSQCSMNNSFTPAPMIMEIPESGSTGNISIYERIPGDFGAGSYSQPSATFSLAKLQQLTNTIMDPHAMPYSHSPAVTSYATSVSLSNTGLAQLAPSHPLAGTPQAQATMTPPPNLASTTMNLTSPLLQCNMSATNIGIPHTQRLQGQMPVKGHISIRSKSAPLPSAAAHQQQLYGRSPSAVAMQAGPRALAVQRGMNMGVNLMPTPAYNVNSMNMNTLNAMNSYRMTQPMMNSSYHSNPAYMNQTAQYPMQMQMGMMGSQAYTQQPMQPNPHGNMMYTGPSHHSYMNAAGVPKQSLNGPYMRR

Turning to `COc1ccccc1S(=O)(=O)Nc1noc2cc(Oc3ccccn3)cc(OC(F)F)c12` [Compound 27, N-(4-(difluoromethoxy)-6-(pyridin-2-yloxy)benzo[d]isoxazol-3-yl)-2-methoxybenzenesulfonamide], the IC50 in series [1] fell in the range of 100 to 1000 nM.
The compound `COc1cccc(OC)c1S(=O)(=O)Nc1noc2cc(Oc3cccnn3)cc(OC(F)F)c12` [Compound 29, N-(4-(difluoromethoxy)-6-(pyridazin-3-yloxy)benzo[d]isoxazol-3-yl)-2,6-dimethoxybenzenesulfonamide] displayed a 50% inhibitory concentration (IC50) in series [1] of 100 to 1000 nM.
Consider `COc1cccc(OC)c1S(=O)(=O)Nc1noc2cc(Oc3nccs3)c3c(c12)OCCC3` [Compound 35, 2,6-dimethoxy-N-(5-(thiazol-2-yloxy)-3,4-dihydro-2H-chromeno[8,7-d]isoxazol-9-yl)benzenesulfonamide], for which the “Mean Papp A to B” value in series [2] is listed as 8.59 10^-6 cm/s. For the same compound, in series [2] (versus compound 47), the “permeability, comparison with corresponding compound having X as carbon” value is reported as “improved permeability”. Further, the “kinetic solubility, comparison with otherwise identical compound having X as carbon” value in series [3] is “improved kinetic solubility”.
`COc1cc(C)nc(OC)c1S(=O)(=O)Nc1noc2cc(Oc3nccs3)cc(OC)c12` [Compound 57, 2,4-dimethoxy-N-(4-methoxy-6-(thiazol-2-yloxy)benzo[d]isoxazol-3-yl)-6-methylpyridine-3-sulfonamide]: the “Mean Papp A to B” value in series [2] is 3.38 10^-6 cm/s. Also, in series [4], the TGI was 67.7% and 83.8%; the anti-tumor activity entry was “potent and dose-dependent anti-tumor activity”; the “mean endpoint TV (tumor volume)” value is 239 mm^3 and 189 mm^3. The body weight entry in series [5] is reported as “maintained the body weight well”. In addition, the half-inhibitory concentration (IC50) in series [6] (combination experiments, compound alone, 1 nM E2 (FIG. 3B), read-out: IC50 of dose-response curve, used alone (combination experiments)) came out at 3.78 nM. In addition, in series [6] (single agent, 1 nM E2), the IC10 is reported as 0.3 nM, the 25% effect concentration (IC25) was 1.2 nM and the IC75 was 15 nM. Further, the IC50 in series [6] (single agent, 1 nM E2, read-out: IC50) came to 4 nM. In addition, the half-inhibitory concentration (IC50) in series [6] (with elacestrant (IC25, 56 nM), 1 nM E2 (FIG. 3B), read-out: IC50 of dose-response curve, in combination with elacestrant) was 0.8 nM.
